The record followed here is ChEMBL document CHEMBL1146257, “2,6-Quinolinyl derivatives as potent VLA-4 antagonists” (Bioorg Med Chem Lett, 2007).

Usually IC50 stands for the concentration that inhibits the measured activity by half. Broadly, the inhibition is the relative decrease from the control value, in per cent. The solubility is how much of the substance goes into solution per volume. As usually defined, the bioavailability is dose-corrected exposure relative to a reference, in per cent. A word on the logD: it is lipophilicity at a set pH, counting ionised and neutral species.

SMILES strings stand for the structures. Converted amounts (≈) assume the structure as drawn.

Series [1] in a line: Inhibition of human recombinant VACM1 binding to VAL4 expressed in U937 cells by adhesion test. The class given is cell-based. Conditions: u-937.
Series [2] has as its system U-937. The experiment in a line: Inhibition of human recombinant VACM1 binding to VAL4 expressed in U937 cells at 1 uM by adhesion test. The class given is cell-based.
Series [3] in a line: Solubility at pH 7.4. The class given is physicochemical. Conditions: buffer.
Series [4] in a line: Oral bioavailability in mouse. The series is classed as ADME, organism-based. Conditions: in vivo.
The nature of series [5]: Inhibition of T cell activation assessed as CD3-VACM interaction. The series is classed as functional, cell-based, Homo sapiens.
The nature of series [6]: Oral bioavailability in dog. The series is classed as ADME, organism-based, Canis lupus familiaris. Conditions: in vivo.
Series [7] can be described thus: Oral bioavailability in monkey. The series is classed as ADME, organism-based, Macaca mulatta. Conditions: rhesus monkey, in vivo.
A short description of series [8]: Oral bioavailability in rat. The class given is ADME, organism-based. Conditions: in vivo.
Series [9] can be described thus: Inhibition of fibronectin binding to VAL4 expressed in Jurkat cells by adhesion test. The series is classed as cell-based, Homo sapiens.
In series [10] the target is Integrin alpha-4/beta-1 (VLA-4) (Homo sapiens). The experiment in a line: Inhibition of VCAM binding to integrin alpha4beta1 by human whole blood assay.
The nature of series [11]: Distribution coefficient, log D of the compound. The class given is physicochemical. Conditions: octanol/water.

Regarding `O=C(N[C@H](Cc1ccc2nc(-c3c(Cl)cccc3Cl)ccc2c1)C(=O)O)c1c(Cl)cccc1Cl`, the IC50 in series [1] is greater than 3.2 µM.

For the compound `O=C(NC(Cc1ccc2nc(-c3c(F)cccc3Cl)ccc2c1)C(=O)O)c1c(Cl)cccc1Cl` (stereo not drawn), in series [1], the IC50 came out at 0.02 µM.

`O=C(NC(Cc1ccc2nc(-c3c(Cl)cccc3Cl)ccc2c1)C(=O)O)c1c(F)cccc1F` (stereo not drawn): the IC50 in series [1] is 0.435 µM.

Take `O=C(O)C(Cc1ccc2nc(-c3c(Cl)cccc3Cl)ccc2c1)NC(=O)C1(c2ccc(Cl)cc2)CCCC1` (stereo not drawn): the IC50 in series [1] is 0.0066 µM.

Turning to `COc1cccc(OC)c1-c1ccc2cc(CC(NC(=O)c3c(Cl)cccc3Cl)C(=O)O)ccc2n1` (stereo not drawn), in series [1], the IC50 came out at 0.02 µM.

Regarding `O=C(NC(Cc1ccc2nc(-c3ccccc3)ccc2c1)C(=O)O)c1c(Cl)cccc1Cl` (stereo not drawn), the inhibition in series [2] turned out to be 24%.

In the case of `Cc1cc(Cl)c(C(=O)NC(Cc2ccc3nc(-c4c(Cl)cccc4Cl)ccc3c2)C(=O)O)c(Cl)n1` (stereo not drawn), in series [1], the IC50 was found to be 0.0079 µM.

`O=C(N[C@@H](Cc1ccc2nc(-c3c(Cl)cccc3Cl)ccc2c1)C(=O)O)c1c(Cl)cccc1Cl` yielded a solubility in [3] of 1.5 µg/mL (≈ 2.81 µM). Also, the bioavailability in series [4] stood at 35%; in series [6], 59%; in series [7] it was 23%; in series [8], 41%. Besides, the IC50 in [5] amounted to 0.043 µM; in series [1] it was 0.0039 µM; in series [9] it was 0.0016 µM; in series [10] it was 0.095 µM. The compound further returned a logD in [11] of 1.47.

Turning to `COc1cccc(OC)c1C(=O)NC(Cc1ccc2nc(-c3c(Cl)cccc3Cl)ccc2c1)C(=O)O` (stereo not drawn), in [1], the IC50 came to 0.0537 µM.

`CS(=O)(=O)c1ccc(-c2ccc3cc(CC(NC(=O)c4c(Cl)cccc4Cl)C(=O)O)ccc3n2)cc1` (stereo not drawn): in [2], the inhibition was 82%.

As to `Cc1cccc(C)c1-c1ccc2cc(CC(NC(=O)c3c(Cl)cccc3Cl)C(=O)O)ccc2n1` (stereo not drawn), the IC50 in series [1] was determined as 0.102 µM.

Regarding `O=C(NC(Cc1ccc2nc(-c3cc(C(F)(F)F)ccc3Cl)ccc2c1)C(=O)O)c1c(Cl)cccc1Cl` (stereo not drawn), in [1], the IC50 was found to be 0.208 µM.

As to `O=C(NC(Cc1ccc2nc(-c3c(Cl)cccc3Cl)ccc2c1)C(=O)O)c1ccccc1` (stereo not drawn), the IC50 in series [1] was found to be 5.64 µM.

With `O=C(NC(Cc1ccc2nc(-c3c(F)cccc3F)ccc2c1)C(=O)O)c1c(Cl)cccc1Cl` (stereo not drawn), the IC50 in [1] worked out at 0.371 µM.

With `CS(=O)(=O)c1ccc(C(=O)NC(Cc2ccc3nc(-c4c(Cl)cccc4Cl)ccc3c2)C(=O)O)c(Cl)c1` (stereo not drawn), the IC50 in [1] amounted to 0.0035 µM.

Turning to `O=C(NC(Cc1ccc2nc(-c3nccs3)ccc2c1)C(=O)O)c1c(Cl)cccc1Cl` (stereo not drawn), in [2], the inhibition amounted to 38%.

In the case of `COc1cccc(OC)c1-c1ccc(C[C@H](NC(=O)c2c(Cl)cccc2Cl)C(=O)O)cc1`, the figures for the IC50 in [5] and in series [1] were 0.099 µM and 0.018 µM, respectively.

With `Cc1cccc(Cl)c1C(=O)NC(Cc1ccc2nc(-c3c(Cl)cccc3Cl)ccc2c1)C(=O)O` (stereo not drawn), the IC50 in series [1] was 0.0039 µM.

Turning to `Cc1cccc(C)c1C(=O)NC(Cc1ccc2nc(-c3c(Cl)cccc3Cl)ccc2c1)C(=O)O` (stereo not drawn), the IC50 in series [1] is 0.0372 µM.

Turning to `O=C(NC(Cc1ccc2nc(-c3cc(Cl)nc(Cl)c3)ccc2c1)C(=O)O)c1c(Cl)cccc1Cl` (stereo not drawn), the IC50 in series [1] was determined as 0.0086 µM.

For the compound `O=C(O)C(Cc1ccc2nc(-c3c(Cl)cccc3Cl)ccc2c1)NC(=O)[C@@H]1CCC(=O)N1Cc1ccccc1` (stereo partly drawn), in series [1], the IC50 was found to be 0.0153 µM.

`O=C(NC(Cc1ccc2nc(-c3c(Cl)cccc3Cl)ccc2c1)C(=O)O)c1c(Cl)cccc1Cl` (stereo not drawn): in [1], the IC50 amounted to 0.0078 µM.

On to `O=C(NC(Cc1ccc2nc(-c3ccncc3)ccc2c1)C(=O)O)c1c(Cl)cccc1Cl` (stereo not drawn), for which the IC50 in series [1] was 0.381 µM.

Regarding `COc1ccc2ccccc2c1-c1ccc2cc(CC(NC(=O)c3c(Cl)cccc3Cl)C(=O)O)ccc2n1` (stereo not drawn), in series [1], the IC50 was 0.0073 µM.

As to `O=C(NC(Cc1ccc2nc(-c3ccc(Cl)cc3Cl)ccc2c1)C(=O)O)c1c(Cl)cccc1Cl` (stereo not drawn), in [1], the IC50 stood at 0.748 µM.

For `O=C(NC(Cc1ccc2nc(-c3ccccc3C(F)(F)F)ccc2c1)C(=O)O)c1c(Cl)cccc1Cl` (stereo not drawn), the IC50 in series [1] worked out at 0.092 µM.

Consider `O=C(NC(Cc1ccc2nc(-c3ccccc3Br)ccc2c1)C(=O)O)c1c(Cl)cccc1Cl` (stereo not drawn), for which the IC50 in [1] was 0.153 µM.

On to `O=C(NC(Cc1ccc2nc(-c3c(Cl)cccc3[N+](=O)[O-])ccc2c1)C(=O)O)c1c(Cl)cccc1Cl` (stereo not drawn), for which the IC50 in series [1] came out at 0.0065 µM.
